Data published in patent US20240308982A1, “DEGRADERS OF WILD-TYPE AND MUTANT FORMS OF LRRK2 AND USES THEREOF” (DANA-FARBER CANCER INSTITUTE, INC., priority 2021, published 2024).

Tested on: LRRK2
Assay: Degradation of LRRK2 (immunoblots of treated cells)
Type: cell-based
Conditions: 448T cells, immunoblot, concentrations 0 to 1000 nM
Experimental: Example 7: Degradation of LRRK2
Cell lines: Mouse embryonic fibroblast (MEF) WT, LRRK2 homozygous knock-ins in MEFs [R1441C; VPS35N(D620N); G2019S].
Tested concentrations of LRRK2 degraders: 0 nM; 10 nM; 30 nM; 100 nM; 300 nM; 1000 nM.
Experimental time points: 1 h; 6 h; 24 h and 48 h.
Complete growth medium: DMEM supplemented with 10% Fetal Bovine Serum; 1% pen/strep; 1% L-Glutamine; 1% MEM Non-essential Amino Acid Solution; 1% sodium pyruvate.
Treatment: WT MEF, and cells containing mutant LRRK2 (R1441C, VPS35N and G2019S) cells were plated at equal density into 6-well plates in a final volume of 3 mL of complete growth medium/well. Degraders were reconstituted in DMSO and used at 1:1000 in cells i.e., 3 μL/3 mL. Treatment began when cells were >60% confluent, starting from the longest, 48 h time point, followed by 24 h, 6 h and finally 1 h.
Cell lysis: Media were aspirated, plates were placed on ice and cells were washed with DPBS. Fifty (50) microliters of an ice-cold lysis buffer containing 50 mM Tris-HCl, pH 7.5, 1% (v/v) Triton X-100, 1 mM EGTA, 1 mM sodium orthovanadate, 50 mM NaF, 0.1% (v/v) 2-mercaptoethanol, 10 mM 2-glycerophosphate, 5 mM sodium pyrophosphate, 0.1 μg/mL microcystin-LR (Enzo Life Sciences), 270 mM sucrose and complete EDTA-free protease inhibitor cocktail (Sigma-Aldrich Cat #11836170001) were added per well. Lysates were centrifuged at 20 817 g (14,000 rpm) for 15 min at 4° C. and supernatants were used to determine protein concentration using Bradford assay (Pierce™ Coomassie (Bradford) Protein Assay Kit, Thermo Scientific Cat #23200) and for Western blot analysis.
Western blot analysis: Cell lysates were mixed with 4× SDS-PAGE sample buffer [50 mM Tris —HCl, pH 6.8, 2% (w/v) SDS, 10% (v/v) glycerol, 0.02% (w/v) Bromophenol Blue and 1% (v/v) 2-mercaptoethanol] to a final total protein concentration of 1 μg/μL and heated at 95° C. for 5 min. […]

**Q.** With CC1(Oc2ccc3[nH]nc(-c4cc(N5CCN(CC6CN(c7ccc8c(c7)C(=O)N(C7CCC(=O)NC7=O)C8=O)C6)CC5)ncn4)c3c2)CC1 (stereo not drawn) [Compound 1, 2-(2,6-dioxopiperidin-3-yl)-5-(3-((4-(6-(5-(1-methylcyclopropoxy)-1H-indazol-3-yl)pyrimidin-4-yl)piperazin-1-yl)methyl)azetidin-1-yl)isoindoline-1,3-dione] as the compound, how does the DC50 read?
**A.** 33 nM

**Q.** What about the Dmax of the same compound?
**A.** 60%

**Q.** What about the “degrader of LRRK2” value of the same compound?
**A.** potent degrader of LRRK2
